The target of one experiment is T1, human Kv1.1 (Homo sapiens, UniProt Q09470).
T1 construct: expressed in transfected cells; host or cells: HEK293
The class given is cell-based.

Experiment [1] concerns CD40L on CD4+ T cells in human whole blood. The class given is cell-based.
In experiment [2] the test system is thapsigargin-induced IL-2 production in human whole blood. The note with it: for IC50: read-out: Analogue Activity (IC50) WB/IL-2.
For experiment [3], the system named is thapsigargin-induced IFN-g production in human whole blood. The class given is cell-based. Particulars: for IC50: read-out: Analogue Activity (IC50) WB/IFNg.
Experiment [4] deals with IL-2R on CD4+ T cells in human whole blood. The format is cell-based.
The next experiment addresses T2, human Kv1.1 (HEK293) (Homo sapiens, UniProt Q09470).
T2 construct: expressed in transfected cells; host or cells: HEK293
Nature of the experiment: cell-based.

A further experiment addresses T3, human Kv1.3 (CHO) (Homo sapiens, UniProt P22001).
T3 construct: expressed in transfected cells
Nature of the experiment: cell-based. The format is cell-based.

A further experiment has as its target human Kv1.3 (Homo sapiens, UniProt P22001). Nature of the experiment: cell-based.

Bridge positions count the residues as written; N and C are the ends. Square brackets hold non-standard residues; d marks the D form. Peptide text beside a SMILES is read from it. 1Nal = N[C@@H](Cc1cccc2ccccc12)C(=O)O

Sequence of human Kv1.3 (P22001 whole entry): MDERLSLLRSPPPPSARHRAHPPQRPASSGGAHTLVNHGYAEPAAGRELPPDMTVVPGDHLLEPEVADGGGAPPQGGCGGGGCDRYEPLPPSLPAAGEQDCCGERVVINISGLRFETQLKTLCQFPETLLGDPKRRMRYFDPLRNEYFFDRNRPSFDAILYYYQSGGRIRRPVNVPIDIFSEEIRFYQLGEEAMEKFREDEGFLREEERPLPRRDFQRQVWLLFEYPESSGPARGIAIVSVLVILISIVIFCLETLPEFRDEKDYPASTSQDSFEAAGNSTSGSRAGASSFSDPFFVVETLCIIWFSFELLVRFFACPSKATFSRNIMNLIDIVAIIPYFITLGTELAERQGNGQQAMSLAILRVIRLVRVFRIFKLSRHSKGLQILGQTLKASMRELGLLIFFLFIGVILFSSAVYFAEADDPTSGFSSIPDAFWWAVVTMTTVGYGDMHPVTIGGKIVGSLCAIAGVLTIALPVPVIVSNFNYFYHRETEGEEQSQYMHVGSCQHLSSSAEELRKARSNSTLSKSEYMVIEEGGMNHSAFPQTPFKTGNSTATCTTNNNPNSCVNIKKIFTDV
T1 sequence (Q09470 whole entry): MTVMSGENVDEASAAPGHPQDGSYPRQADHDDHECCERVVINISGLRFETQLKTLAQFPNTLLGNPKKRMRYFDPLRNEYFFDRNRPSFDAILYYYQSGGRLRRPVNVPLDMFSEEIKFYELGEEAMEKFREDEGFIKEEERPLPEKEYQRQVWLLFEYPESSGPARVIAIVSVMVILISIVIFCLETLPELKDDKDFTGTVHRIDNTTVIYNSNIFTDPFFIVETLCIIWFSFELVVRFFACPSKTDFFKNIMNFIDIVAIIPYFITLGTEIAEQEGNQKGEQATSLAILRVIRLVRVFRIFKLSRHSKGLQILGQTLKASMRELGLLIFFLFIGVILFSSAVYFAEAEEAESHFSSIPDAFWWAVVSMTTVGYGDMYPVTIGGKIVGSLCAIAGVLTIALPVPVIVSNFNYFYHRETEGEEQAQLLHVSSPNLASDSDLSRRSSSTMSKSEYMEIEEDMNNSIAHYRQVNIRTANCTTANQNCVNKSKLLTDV
T3 sequence (P22001 whole entry): as the sequence (P22001 whole entry) above
T2 sequence (Q09470 whole entry): as the sequence (Q09470 whole entry) above

With “Fc-L10-OSK1[K7S,E16K,K20D]: Fc-L10-OSK1 with triple substitution K7S, E16K, K20D”, the IC50 with human Kv1.1 (read-out: hKv1.1: IC50) was 10 nM.
“IbTx: BKCa channel inhibitor iberiotoxin, purchased from Bachem (QFTDVDCSVSKECWSVCKDLFGVDRGKCMGKKCRCYQ; Definition of Artificial Sequence: Synthetic peptide) [reference compound]”: the “thapsigargin-induced upregulation of CD40L on T cells” value in experiment [1] is “no significant activity”. Besides, the “thapsigargin-induced IL-2 production in human whole blood” value in experiment [2] is listed as “no significant activity”. In addition, in experiment [3], the “thapsigargin-induced IFN-g production in human whole blood” value is “no significant activity”. Further, in experiment [4], the “thapsigargin-induced upregulation of the IL-2R on T cells” value was “no significant activity”.
Turning to “Fc-L10-OSK1[E16K,K20D]: Fc-L10-OSK1 with glutamic acid to lysine at 16 and lysine to aspartic acid at 20”, in the experiment with human Kv1.1, the “blocking activity against Kv1.1” value was “removed the blocking activity against Kv1.1”.
In the case of `CC[C@H](C)[C@@H]1NC(=O)[C@H](CCCCN)NC(=O)[C@@H](NC(=O)[C@H](CCCCN)NC(=O)[C@@H](NC(=O)[C@H](CC(N)=O)NC(=O)[C@@H](NC(=O)[C@@H](NC(=O)[C@@H](NC(=O)CN)C(C)C)[C@@H](C)CC)[C@@H](C)CC)C(C)C)CSSC[C@@H]2NC(=O)[C@H](CCCCN)NC(=O)CNC(=O)[C@H](Cc3ccccc3)NC(=O)[C@H](CCCNC(=N)N)NC(=O)[C@H](CCSC)NC(=O)CNC(=O)[C@H](C)NC(=O)[C@H](CCCCN)NC(=O)[C@H](CCCCN)NC(=O)[C@@H]3CSSC[C@@H](C(=O)N[C@H](C(=O)N4CCC[C@H]4C(=O)N[C@@H](CCCCN)C(=O)O)[C@@H](C)O)NC(=O)[C@H](Cc4c[nH]cn4)NC(=O)[C@H](CSSC[C@H](NC(=O)[C@H](CCC(N)=O)NC(=O)[C@H](Cc4cccc5ccccc45)NC(=O)[C@H](CO)NC1=O)C(=O)N[C@@H](CC(C)C)C(=O)N[C@@H](CCC(=O)O)C(=O)N1CCC[C@H]1C(=O)N3)NC(=O)[C@H](CCCCN)NC(=O)CNC(=O)[C@H](CC(N)=O)NC(=O)[C@H](CCSC)NC2=O` [R12Nal] (H-GVIINVKCKIS[1Nal]QCLEPCKKAGMRFGKCMNGKCHCTPK-OH; disulfide 8-28, 14-33, 18-35), the IC50 in experiment [2] worked out at 0.46 nM; in experiment [3] it was 0.387 nM; at human Kv1.1 (HEK293), 0.025 nM; against human Kv1.3 (CHO), 0.0377 nM.
Consider “Fc-L10-OSK1[K7S]: Fc-L10-OSK1 with lysine to serine at position 7”, for which, in the experiment with human Kv1.3, the “change in Kv1.3 potency compared to Fc-L10-OSK1” value was 2 fold, the “fold less potent than the synthetic OSK1 toxin peptide (Kv1.3 IC50)” value was “approximately 10 fold” and the hKv1.1/hKv1.3 selectivity ratio is 269. Also, the IC50 with human Kv1.3 (read-out: IC50 for block of the outward potassium current) came to 0.372 ± 0.071 nM. Moreover, in the experiment with human Kv1.1, the “change in selectivity compared to Fc-L10-OSK1” value worked out at 1.3 fold.
For `CC[C@H](C)[C@@H]1NC(=O)[C@H](CCCCN)NC(=O)[C@@H](NC(=O)[C@H](CCCCN)NC(=O)[C@@H](NC(=O)[C@H](CC(N)=O)NC(=O)[C@@H](NC(=O)[C@@H](NC(=O)[C@@H](NC(=O)CN)C(C)C)[C@@H](C)CC)[C@@H](C)CC)C(C)C)CSSC[C@@H]2NC(=O)[C@H](CCCCN)NC(=O)CNC(=O)[C@H](Cc3ccccc3)NC(=O)[C@H](CCCNC(=N)N)NC(=O)[C@H](CCSC)NC(=O)CNC(=O)[C@H](C)NC(=O)[C@H](CCCCN)NC(=O)[C@H](CCCCN)NC(=O)[C@@H]3CSSC[C@@H](C(=O)N[C@H](C(=O)N4CCC[C@H]4C(=O)N[C@@H](CCCCN)C(=O)O)[C@@H](C)O)NC(=O)[C@H](Cc4c[nH]cn4)NC(=O)[C@H](CSSC[C@H](NC(=O)[C@H](CCC(N)=O)NC(=O)[C@H](CCCNC(=N)N)NC(=O)[C@H](CO)NC1=O)C(=O)N[C@@H](CC(C)C)C(=O)N[C@@H](CCC(=O)O)C(=O)N1CCC[C@H]1C(=O)N3)NC(=O)[C@H](Cc1cccc3ccccc13)NC(=O)CNC(=O)[C@H](CC(N)=O)NC(=O)[C@H](CCSC)NC2=O` [K32Nal] (H-GVIINVKCKISRQCLEPCKKAGMRFGKCMNG[1Nal]CHCTPK-OH; disulfide 8-28, 14-33, 18-35), the IC50 in experiment [2] turned out to be 0.134 nM; in experiment [3], 0.196 nM; against human Kv1.1 (HEK293), 0.00191 nM; against human Kv1.3 (CHO) it was 0.0261 nM.

These data come from US7820623B2 (priority 2006, dated 2010).
